We go through 15 compounds from US9242941B2, “Alkyl, fluoroalkyl-1,4-benzodiazepinone compounds” (BRISTOL-MYERS SQUIBB COMPANY, priority 2012, dated 2016).

Molecules are shown by their SMILES.

Series [1] in a line: human metabolic stability half-life assay. The note with it: microsomes, human liver microsomes. How it is done: Metabolic Stability Half-Life Panel
Incubation with Liver Microsomes

In another series the test system is human Notch 3. Briefly: Notch-CBF1 Transactivation Assay (Notch 3). The note with it: read-out: Notch 3 IC50; Notch-CBF1 transactivation luciferase assay in transfected HeLa cells; some values are an average of N experiments. The series is classed as cell-based. From the text: (§1) Notch-CBF1 Transactivation Assay
(§2) The Notch-CBF1 (C-promoter binding factor I) cell based transactivation assay is based on the ability of the released Notch intracellular domain fragments (NICDs) to function as transcription factors in conjunction with CBF1 and other nuclear factors. Luciferase assays were used to measure the antagonism of Notch-CBF1 transcriptional activity. HeLa cervical cancer cells are transiently co-transfected with pCDNA3.1/Hygro plasmids containing truncated Notch 1, Notch 2, Notch 3, or Notch 4 receptors and a PGL3 luciferase reporter vector containing 4 copies of CBF1 binding site. The cells were then tested for Notch-CBF1 activity in the absence or presence of test compounds. HeLa cells, maintained in DMEM (high glucose with HEPES), 1× glutamine/penicillin/streptomycin and 10% Fetal Bovine serum, were transiently transfected in a T175 Flask (4.5×10^6 cells/flask) using the Monster Transfection Kit (Minis #MIR2906) according to manufacturers specifications. Table 13 denotes respective DNA quantity for the transfections.
(§3) Assay media (5 μL) containing test compounds in final concentrations ranging from 5 μM to 8.4×10^−5 μM (3 fold serial dilutions) were added to the cells and the cell plates were then incubated for 18 hours at 37° C. and 5% CO2. Control wells contained DMSO vehicle (total counts) or 0.5 μM of an in-house small molecule inhibitor (background counts). Duplicates were used for each sample. Luciferase activity was measured after a 20-minute incubation with 50 μl STEADY-GLO® luciferase reagents according to manufacturer's specifications (Promega, Cat. #E2550) and analyzed by Envision plate reader (PerkinElmer, Boston, Mass.).
(§4) The antagonist effect of compounds was expressed as 100×[1−(average sample−average background)/(average total−average background)] where sample is the luciferase activity in the presence of test compound, background is equal to the luciferase activity in the presence of the small molecule inhibitor control and the total is signal induced in DMSO wells.

The subject of a further series is human Notch 1. Briefly: Notch-CBF1 Transactivation Assay (Notch 1). It counts as cell-based. The note with it: read-out: Notch 1 IC50; Notch-CBF1 transactivation luciferase assay in transfected HeLa cells; some values are an average of N experiments.
Text: as §1, §2, §3, §4

[2] abbreviates: pH 7.4, CYP-mediated metabolic stability half life, NADPH-dependent.
[3] abbreviates: pH 7.4, HLM (t1/2, min), CYP-mediated (NADPH-dependent), 0.5 μM compound, 45 min time course, some values are an average of N experiments.

As for `CCC[C@H](C(N)=O)[C@@H](CCC(F)(F)F)C(=O)N[C@H]1N=C(c2ccc(Cl)cc2)c2cccc(OC)c2NC1=O` [Example 25, (2R,3S)—N-((3S)-5-(4-Chlorophenyl)-9-methoxy-2-oxo-2,3-dihydro-1H-1,4-benzodiazepin-3-yl)-3-propyl-2-(3,3,3-trifluoropropyl)succinamide], the half-life at 0.5 µM in series [1] (setting [2]) was no less than 30 min; in series [1] (setting [3]), 31 min. Also, the IC50 in the series on human Notch 3 stood at 5.6 nM; in the series on human Notch 1, 6.8 nM.

As for `NC(=O)[C@@H](CC1CC1)[C@@H](CCC(F)(F)F)C(=O)N[C@H]1N=C(c2ccc(Cl)cc2)c2cccc(C3CC3)c2NC1=O` [Example 7, (2R,3S)—N-((3S)-5-(4-Chlorophenyl)-9-cyclopropyl-2-oxo-2,3-dihydro-1H-1,4-benzodiazepin-3-yl)-3-(cyclopropylmethyl)-2-(3,3,3-trifluoropropyl)succinamide], the half-life at 0.5 µM is no less than 30 min in series [1] (setting [2]) and 97 min in series [1] (setting [3]). Further, the figures for the IC50 in the series on human Notch 3 and in the series on human Notch 1 were 3.3 nM and 2 nM, respectively.

As to `Cc1cccc2c1NC(=O)[C@@H](NC(=O)[C@H](CCC(F)(F)F)[C@H](CC1CC1)C(N)=O)N=C2c1ccccc1` [Example 11, (2R,3S)-3-(Cyclopropylmethyl)-N-((3S)-9-methyl-2-oxo-5-phenyl-2,3-dihydro-1H-1,4-benzodiazepin-3-yl)-2-(3,3,3-trifluoropropyl)succinamide], the half-life at 0.5 µM in series [1] (setting [2]) is no less than 30 min; in series [1] (setting [3]) it was 76 min. The IC50 in the series with human Notch 3 is 8.7 nM; in the series on human Notch 1, 4 nM.

As for `CCC[C@H](C(N)=O)[C@@H](CCC(F)(F)F)C(=O)N[C@H]1N=C(c2ccccc2)c2cccc(C#N)c2NC1=O` [Example 32, (2R,3S)—N-((3S)-9-Cyano-2-oxo-5-phenyl-2,3-dihydro-1H-1,4-benzodiazepin-3-yl)-3-propyl-2-(3,3,3-trifluoropropyl)succinamide], the figures for the half-life at 0.5 µM in series [1] (setting [2]) and in series [1] (setting [3]) were no less than 30 min and 55 min, respectively. For the same compound, the IC50 in the series on human Notch 3 is 19.7 nM; with human Notch 1, 8.3 nM.

`CN1C(=O)[C@@H](NC(=O)[C@H](CCC(F)(F)F)[C@H](CC2CC2)C(N)=O)N=C(c2ccccc2)c2cccc(F)c21` [Example 20, (2R,3S)-3-(Cyclopropylmethyl)-N-((3S)-9-fluoro-1-methyl-2-oxo-5-phenyl-2,3-dihydro-1H-1,4-benzodiazepin-3-yl)-2-(3,3,3-trifluoropropyl)succinamide]: the half-life at 0.5 µM in series [1] (setting [2]) is no less than 30 min; in series [1] (setting [3]), 106 min. Also, the IC50 in the series on human Notch 3 is 9.1 nM; in the series with human Notch 1, 3.4 nM.

For the compound `COc1cccc2c1NC(=O)[C@@H](NC(=O)[C@H](CCC(F)(F)F)[C@H](CC1CC1)C(N)=O)N=C2c1ccc(Cl)cc1` [Example 21, (2R,3S)—N-((3S)-5-(4-Chlorophenyl)-9-methoxy-2-oxo-2,3-dihydro-1H-1,4-benzodiazepin-3-yl)-3-(cyclopropylmethyl)-2-(3,3,3-trifluoropropyl)succinamide], the half-life at 0.5 µM in series [1] (setting [2]) was no less than 30 min; in series [1] (setting [3]), 62 min. For the same compound, the IC50 with human Notch 3 and in the series on human Notch 1 was 2.4 nM throughout.

For `NC(=O)[C@@H](CC1CC1)[C@@H](CCC(F)(F)F)C(=O)N[C@H]1N=C(c2cccc(Cl)c2)c2cccc(Cl)c2NC1=O` [Example 26, (2R,3S)—N-((3S)-9-Chloro-5-(3-chlorophenyl)-2-oxo-2,3-dihydro-1H-benzo[e][1,4]diazepin-3-yl)-3-(cyclopropylmethyl)-2-(3,3,3-trifluoropropyl)succinamide], the half-life at 0.5 µM in series [1] (setting [2]) was no less than 30 min; in series [1] (setting [3]), 96 min. The figures for the half-maximal inhibitory concentration (IC50) with human Notch 3 and in the series with human Notch 1 were 2.1 nM and 1.9 nM, respectively.

`Cc1ccccc1C1=N[C@H](NC(=O)[C@H](CCC(F)(F)F)[C@H](CC2CC2)C(N)=O)C(=O)Nc2c(Cl)cccc21` [Example 13, (2R,3S)—N-((3S)-9-Chloro-5-(2-methylphenyl)-2-oxo-2,3-dihydro-1H-1,4-benzodiazepin-3-yl)-3-(cyclopropylmethyl)-2-(3,3,3-trifluoropropyl)succinamide]: the half-life at 0.5 µM in series [1] (setting [2]) was no less than 30 min; in series [1] (setting [3]), greater than 120 min. The values for the IC50 in the series with human Notch 3 and in the series with human Notch 1 were 5.1 nM and 2.9 nM, respectively.

As to `NC(=O)[C@@H](CC1CC1)[C@@H](CCC(F)(F)F)C(=O)N[C@H]1N=C(c2ccc(Cl)cc2)c2cccc(Cl)c2NC1=O` [Example 27, (2R,3S)—N-((3S)-9-Chloro-5-(4-chlorophenyl)-2-oxo-2,3-dihydro-1H-1,4-benzodiazepin-3-yl)-3-(cyclopropylmethyl)-2-(3,3,3-trifluoropropyl)succinamide], the values for the half-life at 0.5 µM in series [1] (setting [2]) and in series [1] (setting [3]) were no less than 30 min and 81 min, respectively. Moreover, the IC50 with human Notch 3 was 1.6 nM; in the series on human Notch 1 it was 4.6 nM.

As for `NC(=O)[C@@H](CC1CC1)[C@@H](CCC(F)(F)F)C(=O)N[C@H]1N=C(c2ccccc2)c2ccc(Cl)c(Cl)c2NC1=O` [Example 34, (2R,3S)-3-(Cyclopropylmethyl)-N-((3S)-8,9-dichloro-2-oxo-5-phenyl-2,3-dihydro-1H-1,4-benzodiazepin-3-yl)-2-(3,3,3-trifluoropropyl)succinamide], the half-life at 0.5 µM in series [1] (setting [2]) was no less than 30 min; in series [1] (setting [3]), greater than 120 min. The IC50 in the series with human Notch 3 stood at 7.4 nM; in the series with human Notch 1, 4.7 nM.

In the case of `COc1ccc2c(c1F)NC(=O)[C@@H](NC(=O)[C@H](CCC(F)(F)F)[C@H](CC1CC1)C(N)=O)N=C2c1ccccc1` [Example 29, (2R,3S)-3-(Cyclopropylmethyl)-N-((3S)-9-fluoro-8-methoxy-2-oxo-5-phenyl-2,3-dihydro-1H-1,4-benzodiazepin-3-yl)-2-(3,3,3-trifluoropropyl)succinamide], the half-life at 0.5 µM in series [1] (setting [2]) is no less than 30 min; in series [1] (setting [3]) it was 99 min. The IC50 in the series on human Notch 3 worked out at 7.1 nM; with human Notch 1, 3.1 nM.

As to `CCC[C@H](C(N)=O)[C@@H](CCC(F)(F)F)C(=O)N[C@H]1N=C(c2ccccc2)c2ccc(Br)c(OC)c2NC1=O` [Example 39, (2R,3S)—N-((3S)-8-Bromo-9-methoxy-2-oxo-5-phenyl-2,3-dihydro-1H-1,4-benzodiazepin-3-yl)-3-propyl-2-(3,3,3-trifluoropropyl)succinamide], the half-life at 0.5 µM was no less than 30 min in series [1] (setting [2]) and 38 min in series [1] (setting [3]). The values for the IC50 in the series with human Notch 3 and in the series with human Notch 1 were 12 nM and 13.4 nM, respectively.

Take `C=CC[C@H](C(N)=O)[C@@H](CC(C)C)C(=O)N[C@H]1N=C(c2ccccc2)c2ccccc2N(CCC)C1=O` [Comparative Compound 59, reference compound]: the half-life at 0.5 µM in series [1] (setting [2]) was no more than 9 min.

`CCCC[C@H](C(N)=O)[C@@H](CC(C)C)C(=O)N[C@H]1N=C(c2ccc(Cl)cc2)c2ccccc2N(C)C1=O` [Comparative Compound 58, reference compound]: the half-life at 0.5 µM in series [1] (setting [2]) was no more than 9 min.

On to `C=CC[C@H](C(N)=O)[C@@H](CC(C)C)C(=O)N[C@H]1N=C(c2ccccc2)c2cc(Cl)ccc2N(C)C1=O` [Comparative Compound 57, reference compound], for which the half-life at 0.5 µM in series [1] (setting [2]) is no more than 9 min.
